Results reported in patent US20120010242A1 (ALKERSTRAAT 30 A, priority 2009, published 2012).

How the values were obtained:
5-HT2C receptor = target: T1, 5-HT2C receptor (Homo sapiens, UniProt P28335); experiment: pKi for 5HT2C receptor (Table 1); assay type: binding
T1 sequence (P28335 33-458): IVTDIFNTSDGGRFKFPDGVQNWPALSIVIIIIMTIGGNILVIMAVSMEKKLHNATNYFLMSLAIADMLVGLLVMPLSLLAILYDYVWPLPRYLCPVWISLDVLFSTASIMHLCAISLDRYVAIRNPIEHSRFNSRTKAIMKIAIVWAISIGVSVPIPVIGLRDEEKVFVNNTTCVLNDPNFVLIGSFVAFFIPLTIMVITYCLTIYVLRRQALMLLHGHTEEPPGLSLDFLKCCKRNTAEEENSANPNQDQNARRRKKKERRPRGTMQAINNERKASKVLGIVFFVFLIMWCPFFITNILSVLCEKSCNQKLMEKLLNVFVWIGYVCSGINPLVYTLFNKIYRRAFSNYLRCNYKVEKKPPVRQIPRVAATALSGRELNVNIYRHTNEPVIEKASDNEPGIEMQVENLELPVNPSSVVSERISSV

D2 dopamine receptor = D2 dopamine receptor (Homo sapiens, UniProt P14416); experiment: pKi for dopamine receptor D2 (Table 1); assay type: binding
D3 dopamine receptor = D3 dopamine receptor (Homo sapiens, UniProt P35462); experiment: pKi for dopamine receptor D3 (Table 1); assay type: binding
[1] = target: T2, adrenergic receptor Alpha 2A (Homo sapiens, UniProt P08913); experiment: pKi for adrenergic receptor Alpha2A (Table 1); assay type: binding
T2 sequence (P08913 1-465): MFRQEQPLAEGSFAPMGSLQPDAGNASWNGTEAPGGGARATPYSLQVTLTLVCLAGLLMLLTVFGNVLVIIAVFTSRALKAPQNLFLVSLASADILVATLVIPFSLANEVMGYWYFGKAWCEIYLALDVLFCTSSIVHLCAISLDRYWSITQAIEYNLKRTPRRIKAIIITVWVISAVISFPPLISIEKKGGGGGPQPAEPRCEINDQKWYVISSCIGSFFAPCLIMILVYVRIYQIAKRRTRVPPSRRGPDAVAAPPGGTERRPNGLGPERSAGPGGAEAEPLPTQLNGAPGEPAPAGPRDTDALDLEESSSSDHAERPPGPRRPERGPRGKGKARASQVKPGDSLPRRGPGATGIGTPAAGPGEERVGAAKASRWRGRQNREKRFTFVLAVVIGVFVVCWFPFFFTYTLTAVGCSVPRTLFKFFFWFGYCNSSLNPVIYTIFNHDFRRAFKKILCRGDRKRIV

5-HT2A receptor = 5-HT2A receptor (Homo sapiens, UniProt P28223); experiment: pKi for 5HT2A receptor (Table 1); assay type: binding
D4 receptor = target: T3, D4 receptor (Homo sapiens, UniProt P21917); experiment: pKi for dopamine receptor D4 (Table 1); assay type: binding
T3 sequence (P21917 1-419): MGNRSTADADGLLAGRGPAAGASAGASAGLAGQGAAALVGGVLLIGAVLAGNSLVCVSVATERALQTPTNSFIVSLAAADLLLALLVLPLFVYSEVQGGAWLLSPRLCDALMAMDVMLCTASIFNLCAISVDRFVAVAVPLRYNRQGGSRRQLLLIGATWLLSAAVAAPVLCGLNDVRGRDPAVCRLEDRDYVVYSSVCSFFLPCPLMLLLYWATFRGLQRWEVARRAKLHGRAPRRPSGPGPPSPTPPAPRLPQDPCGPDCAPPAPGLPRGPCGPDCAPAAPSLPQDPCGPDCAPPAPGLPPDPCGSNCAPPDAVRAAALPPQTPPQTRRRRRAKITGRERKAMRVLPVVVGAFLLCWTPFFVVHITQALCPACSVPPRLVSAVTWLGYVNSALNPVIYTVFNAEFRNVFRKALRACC

D1 dopamine receptor = D1 dopamine receptor (Homo sapiens, UniProt P21728); experiment: pKi for dopamine receptor D1 (Table 1); assay type: binding
[2] = target: T4, adrenergic receptor Alpha 1A (Homo sapiens, UniProt P35348); experiment: pKi for adrenergic receptor Alpha1A (Table 1); assay type: binding
T4 sequence (P35348 1-466): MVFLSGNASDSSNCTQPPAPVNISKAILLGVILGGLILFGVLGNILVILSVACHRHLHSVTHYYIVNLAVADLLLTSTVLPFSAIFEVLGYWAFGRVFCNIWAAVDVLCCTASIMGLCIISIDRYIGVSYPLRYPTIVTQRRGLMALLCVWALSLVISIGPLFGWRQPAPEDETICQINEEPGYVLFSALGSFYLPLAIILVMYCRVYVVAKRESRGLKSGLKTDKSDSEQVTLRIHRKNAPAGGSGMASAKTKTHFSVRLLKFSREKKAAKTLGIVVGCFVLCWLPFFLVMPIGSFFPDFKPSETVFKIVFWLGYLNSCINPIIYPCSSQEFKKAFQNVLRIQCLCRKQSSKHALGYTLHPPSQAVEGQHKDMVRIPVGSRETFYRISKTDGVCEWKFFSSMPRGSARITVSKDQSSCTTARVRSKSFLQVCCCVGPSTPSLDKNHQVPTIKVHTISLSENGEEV

5-HT1A receptor = target: T5, 5-HT1A receptor (Homo sapiens, UniProt P08908); experiment: pKi for 5HT1A receptor (Table 1); assay type: binding
T5 sequence (P08908 1-422): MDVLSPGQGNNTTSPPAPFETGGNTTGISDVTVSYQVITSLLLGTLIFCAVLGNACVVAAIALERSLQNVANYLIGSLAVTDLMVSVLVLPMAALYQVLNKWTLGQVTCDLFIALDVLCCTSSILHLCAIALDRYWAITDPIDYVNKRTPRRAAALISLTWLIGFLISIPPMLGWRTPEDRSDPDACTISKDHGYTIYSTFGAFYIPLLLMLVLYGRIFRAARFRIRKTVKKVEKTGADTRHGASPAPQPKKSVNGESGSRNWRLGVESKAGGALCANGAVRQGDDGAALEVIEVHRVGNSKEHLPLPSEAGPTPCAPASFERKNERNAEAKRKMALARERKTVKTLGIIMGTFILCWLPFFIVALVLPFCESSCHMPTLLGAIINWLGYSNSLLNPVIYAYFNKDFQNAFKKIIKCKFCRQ

5-HT1D receptor = 5-HT1D receptor (Homo sapiens, UniProt P28221); experiment: pKi for 5HT1D receptor (Table 1); assay type: binding
5-HT1B receptor = 5-HT1B receptor (Homo sapiens, UniProt P28222); experiment: pKi for 5HT1B receptor (Table 1); assay type: binding
5-HT2B receptor = 5-HT2B receptor (Homo sapiens, UniProt P41595); experiment: pKi for 5HT2B receptor (Table 1); assay type: binding
5-HT6 (rat) receptor = 5-HT6 (rat) receptor (Rattus norvegicus, UniProt P31388); experiment: pKi for 5HT6 rat receptor (Table 1); assay type: binding
5-HT7 (rat) receptor = 5-HT7 (rat) receptor (Rattus norvegicus, UniProt P32305); experiment: pKi for 5HT7 rat receptor (Table 1); assay type: binding
[3] = target: adrenergic receptor Alpha 2B (Homo sapiens, UniProt P18089); experiment: pKi for adrenergic receptor Alpha2B (Table 1); assay type: binding
[4] = target: adrenergic receptor Alpha 2C (Homo sapiens, UniProt P18825); experiment: pKi for adrenergic receptor Alpha2C (Table 1); assay type: binding
[5] = target: adrenergic receptor Beta 2 (Homo sapiens, UniProt P07550); experiment: pKi for adrenergic receptor Beta2 (Table 1); assay type: binding
[6] = target: adrenergic receptor Beta 1 (Homo sapiens, UniProt P08588); experiment: pKi for adrenergic receptor Beta1 (Table 1); assay type: binding
patients = details: clinical trials; cited from earlier work
[7] = tested on: patients with treatment refractory major depression; experiment: Semi-naturalistic open label study of low dose pipamperone in treatment refractory major depression; assay type: in vivo, human
other 5HT receptors = experiment: pKi towards other 5HT receptors; assay type: binding; details: 5HT receptors other than 5-HT2A
other dopamine receptors = experiment: pKi towards other dopamine receptors; assay type: binding; details: dopamine receptors other than D4
5-HT1E receptor = 5-HT1E receptor (Homo sapiens, UniProt P28566); experiment: pKi for 5HT1E receptor (Table 1); assay type: binding
Chain of 5-HT1E receptor (P28566 whole entry): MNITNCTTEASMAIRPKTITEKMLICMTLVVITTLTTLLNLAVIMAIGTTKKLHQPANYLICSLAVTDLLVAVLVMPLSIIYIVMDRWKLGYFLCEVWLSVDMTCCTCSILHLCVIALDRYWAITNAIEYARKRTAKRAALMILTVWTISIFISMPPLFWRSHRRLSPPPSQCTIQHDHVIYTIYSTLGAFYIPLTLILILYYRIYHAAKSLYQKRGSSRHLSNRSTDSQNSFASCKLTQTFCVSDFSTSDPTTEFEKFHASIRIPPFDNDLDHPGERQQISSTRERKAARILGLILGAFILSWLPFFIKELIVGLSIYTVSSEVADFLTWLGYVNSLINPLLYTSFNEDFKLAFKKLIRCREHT

Chain of D3 dopamine receptor (P35462 whole entry): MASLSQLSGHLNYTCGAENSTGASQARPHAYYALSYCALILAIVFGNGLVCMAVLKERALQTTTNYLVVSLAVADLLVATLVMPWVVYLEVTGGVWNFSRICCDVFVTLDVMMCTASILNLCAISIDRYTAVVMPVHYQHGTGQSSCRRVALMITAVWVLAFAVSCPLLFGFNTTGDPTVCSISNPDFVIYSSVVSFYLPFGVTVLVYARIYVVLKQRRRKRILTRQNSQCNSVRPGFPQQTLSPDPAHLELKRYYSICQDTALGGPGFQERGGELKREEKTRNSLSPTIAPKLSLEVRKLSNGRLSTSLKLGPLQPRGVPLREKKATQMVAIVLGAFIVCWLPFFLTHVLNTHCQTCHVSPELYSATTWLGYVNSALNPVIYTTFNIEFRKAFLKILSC
Chain of 5-HT2B receptor (P41595 whole entry): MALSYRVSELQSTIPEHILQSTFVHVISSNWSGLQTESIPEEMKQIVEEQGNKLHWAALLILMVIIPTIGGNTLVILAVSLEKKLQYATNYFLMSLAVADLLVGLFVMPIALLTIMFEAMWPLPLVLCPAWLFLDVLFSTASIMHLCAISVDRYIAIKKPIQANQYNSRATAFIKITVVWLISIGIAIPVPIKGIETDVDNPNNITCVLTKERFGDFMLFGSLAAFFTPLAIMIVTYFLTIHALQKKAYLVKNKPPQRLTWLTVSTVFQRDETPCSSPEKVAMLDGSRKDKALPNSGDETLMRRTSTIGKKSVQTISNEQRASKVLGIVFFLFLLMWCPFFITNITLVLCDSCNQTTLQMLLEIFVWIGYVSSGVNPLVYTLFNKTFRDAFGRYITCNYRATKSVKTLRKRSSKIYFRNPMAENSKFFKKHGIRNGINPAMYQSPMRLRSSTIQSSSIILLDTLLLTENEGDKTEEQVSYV
Chain of D2 dopamine receptor (P14416 whole entry): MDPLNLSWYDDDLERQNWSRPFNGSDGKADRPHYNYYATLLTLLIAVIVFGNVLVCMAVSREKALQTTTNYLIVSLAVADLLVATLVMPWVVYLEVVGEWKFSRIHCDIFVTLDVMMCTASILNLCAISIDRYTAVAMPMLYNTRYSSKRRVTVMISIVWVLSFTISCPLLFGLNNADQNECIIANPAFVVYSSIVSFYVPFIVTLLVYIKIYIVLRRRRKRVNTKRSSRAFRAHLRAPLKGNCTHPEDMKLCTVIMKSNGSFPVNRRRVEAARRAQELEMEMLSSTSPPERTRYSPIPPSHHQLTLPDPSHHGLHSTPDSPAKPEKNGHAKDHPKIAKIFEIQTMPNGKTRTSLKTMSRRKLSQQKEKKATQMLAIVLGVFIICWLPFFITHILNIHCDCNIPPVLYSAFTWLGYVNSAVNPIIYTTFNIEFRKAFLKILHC
Chain of D1 dopamine receptor (P21728 whole entry): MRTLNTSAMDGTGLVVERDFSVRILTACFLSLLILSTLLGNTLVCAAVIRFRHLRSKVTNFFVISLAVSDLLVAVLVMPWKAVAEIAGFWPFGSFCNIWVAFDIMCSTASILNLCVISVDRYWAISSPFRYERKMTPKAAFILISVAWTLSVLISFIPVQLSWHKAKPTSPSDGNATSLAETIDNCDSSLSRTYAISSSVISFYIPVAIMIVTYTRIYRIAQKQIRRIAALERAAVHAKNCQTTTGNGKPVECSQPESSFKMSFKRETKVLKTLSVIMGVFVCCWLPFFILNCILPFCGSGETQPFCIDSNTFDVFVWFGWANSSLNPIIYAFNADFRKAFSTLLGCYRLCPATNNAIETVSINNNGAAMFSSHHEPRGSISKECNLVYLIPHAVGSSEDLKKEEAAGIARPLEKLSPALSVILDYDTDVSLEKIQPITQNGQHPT
Chain of 5-HT2A receptor (P28223 whole entry): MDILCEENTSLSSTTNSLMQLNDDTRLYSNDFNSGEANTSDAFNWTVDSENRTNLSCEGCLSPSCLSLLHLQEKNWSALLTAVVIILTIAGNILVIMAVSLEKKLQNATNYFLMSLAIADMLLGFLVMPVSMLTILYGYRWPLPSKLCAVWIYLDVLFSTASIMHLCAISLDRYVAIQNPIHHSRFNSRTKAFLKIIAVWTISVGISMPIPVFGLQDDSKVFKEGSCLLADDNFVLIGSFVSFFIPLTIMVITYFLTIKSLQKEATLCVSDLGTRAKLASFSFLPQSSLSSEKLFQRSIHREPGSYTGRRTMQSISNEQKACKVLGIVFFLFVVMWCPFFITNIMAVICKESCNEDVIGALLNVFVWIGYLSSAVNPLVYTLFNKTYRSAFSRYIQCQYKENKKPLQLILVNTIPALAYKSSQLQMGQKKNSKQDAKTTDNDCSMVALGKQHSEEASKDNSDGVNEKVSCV
Chain of 5-HT1B receptor (P28222 whole entry): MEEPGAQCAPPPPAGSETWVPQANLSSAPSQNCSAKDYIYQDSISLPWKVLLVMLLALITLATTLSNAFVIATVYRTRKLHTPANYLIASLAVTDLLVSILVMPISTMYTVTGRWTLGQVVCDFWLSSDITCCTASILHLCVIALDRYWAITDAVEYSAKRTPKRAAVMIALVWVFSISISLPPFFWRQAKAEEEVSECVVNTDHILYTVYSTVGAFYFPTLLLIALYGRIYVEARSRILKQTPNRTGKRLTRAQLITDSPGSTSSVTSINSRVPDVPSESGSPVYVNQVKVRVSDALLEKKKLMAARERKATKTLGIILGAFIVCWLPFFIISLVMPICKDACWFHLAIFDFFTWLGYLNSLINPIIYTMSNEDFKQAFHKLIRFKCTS
Chain of 5-HT1D receptor (P28221 whole entry): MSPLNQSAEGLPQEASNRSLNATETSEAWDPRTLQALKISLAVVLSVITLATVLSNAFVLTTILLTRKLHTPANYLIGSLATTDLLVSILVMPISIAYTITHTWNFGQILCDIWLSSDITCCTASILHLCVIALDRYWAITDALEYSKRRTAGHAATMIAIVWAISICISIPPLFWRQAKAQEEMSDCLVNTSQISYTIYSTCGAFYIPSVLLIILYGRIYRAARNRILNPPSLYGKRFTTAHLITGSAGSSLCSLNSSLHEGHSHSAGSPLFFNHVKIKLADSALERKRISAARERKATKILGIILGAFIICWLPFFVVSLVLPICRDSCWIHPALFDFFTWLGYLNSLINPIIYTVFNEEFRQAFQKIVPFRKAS
Chain of 5-HT6 (rat) receptor (P31388 whole entry): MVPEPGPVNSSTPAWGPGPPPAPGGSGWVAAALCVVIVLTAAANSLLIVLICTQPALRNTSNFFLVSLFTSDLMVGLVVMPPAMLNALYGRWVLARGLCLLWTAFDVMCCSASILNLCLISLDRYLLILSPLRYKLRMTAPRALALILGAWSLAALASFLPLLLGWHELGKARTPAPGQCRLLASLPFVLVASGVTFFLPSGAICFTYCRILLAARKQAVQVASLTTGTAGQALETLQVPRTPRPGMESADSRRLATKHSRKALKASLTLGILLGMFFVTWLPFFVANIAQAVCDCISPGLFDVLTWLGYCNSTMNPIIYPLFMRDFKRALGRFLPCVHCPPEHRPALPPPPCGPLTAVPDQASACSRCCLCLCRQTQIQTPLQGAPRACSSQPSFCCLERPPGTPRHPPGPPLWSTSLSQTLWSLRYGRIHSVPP
Chain of adrenergic receptor Alpha 2C (P18825 whole entry): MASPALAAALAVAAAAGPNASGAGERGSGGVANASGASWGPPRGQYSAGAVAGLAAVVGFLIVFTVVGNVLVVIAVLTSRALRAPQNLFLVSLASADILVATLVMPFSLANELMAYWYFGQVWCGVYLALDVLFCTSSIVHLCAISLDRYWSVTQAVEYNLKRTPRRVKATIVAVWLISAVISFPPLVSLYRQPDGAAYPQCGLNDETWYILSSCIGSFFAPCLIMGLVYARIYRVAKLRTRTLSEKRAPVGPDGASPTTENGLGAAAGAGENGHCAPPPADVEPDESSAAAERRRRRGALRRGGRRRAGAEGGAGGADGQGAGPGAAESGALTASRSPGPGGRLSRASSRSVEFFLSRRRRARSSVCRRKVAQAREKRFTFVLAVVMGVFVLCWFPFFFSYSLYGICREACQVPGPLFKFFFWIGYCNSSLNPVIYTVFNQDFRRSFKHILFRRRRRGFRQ
Chain of adrenergic receptor Alpha 2B (P18089 whole entry): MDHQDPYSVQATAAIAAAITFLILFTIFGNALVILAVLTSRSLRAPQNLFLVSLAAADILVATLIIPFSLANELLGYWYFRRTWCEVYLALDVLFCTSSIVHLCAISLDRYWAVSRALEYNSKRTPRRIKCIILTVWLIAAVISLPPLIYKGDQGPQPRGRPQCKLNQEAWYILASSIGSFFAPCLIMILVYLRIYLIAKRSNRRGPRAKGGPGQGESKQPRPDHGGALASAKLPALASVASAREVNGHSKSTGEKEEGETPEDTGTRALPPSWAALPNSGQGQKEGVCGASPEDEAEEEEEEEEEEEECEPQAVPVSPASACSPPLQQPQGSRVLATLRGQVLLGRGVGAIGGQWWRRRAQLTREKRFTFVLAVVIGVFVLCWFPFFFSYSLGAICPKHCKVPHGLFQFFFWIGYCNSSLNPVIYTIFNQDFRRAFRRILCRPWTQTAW

pKi 5HT2C (5-HT2C receptor)	pKi D3 (D3 dopamine receptor)	pKi Alpha2A [1]	pKi 5HT2A (5-HT2A receptor)	pKi D4 (D4 receptor)	pKi Alpha1A [2]	pKi 5HT1A (5-HT1A receptor)	SMILES	also measured
6-7	6-7	6-7	8-9	8-9	>9	7-8	O=C1N(CCN2CCC(c3noc4cc(F)ccc34)CC2)CCN1c1ccccc1 [S18327]	pKi D2 (D2 dopamine receptor): 7-8; pKi D1 (D1 dopamine receptor): 7-8
–	7-8	<6	–	6-7	–	–	OC1(c2ccc(Cl)cc2)CCN(Cc2c[nH]c3ccccc23)CC1 [L741626]	pKi 5HT1D (5-HT1D receptor): <6; pKi 5HT1B (5-HT1B receptor): <6; pKi 5HT2B (5-HT2B receptor): 6-7
–	–	–	–	–	–	–	Fc1cccc2c1O[C@H]1CNC[C@@H]1O2 [Fluparoxan]	Ki (5-HT2A receptor): > 1000 nM
7-8	>9	<6	6-7	<6	6-7	<6	N#Cc1ccc2c(c1)[C@H]1CN(CCCCNC(=O)c3ccc(-c4ccccc4)cc3)C[C@@H]1CO2 [S33084]	pKi D2 (D2 dopamine receptor): 7-8; pKi 5HT1D (5-HT1D receptor): 6-7; pKi 5HT1B (5-HT1B receptor): 6-7; pKi 5HT2B (5-HT2B receptor): 6-7; pKi D1 (D1 dopamine receptor): 6-7
–	–	–	–	–	–	–	CCNC(=O)N1CCN(CCCC(c2ccc(F)cc2)c2ccc(F)cc2)CC1 [Amperozide]	Ki (D4 receptor): > 1000 nM
7-8	7-8	6-7	>9	7-8	8-9	8-9	O=C(CC1CCN(CCOc2cccc3c2OCCO3)C1)c1ccc(F)cc1 (centres unmarked) [S16924]	pKi 5HT6rat (5-HT6 (rat) receptor): 7-8; pKi D2 (D2 dopamine receptor): 7-8; pKi 5HT7rat (5-HT7 (rat) receptor): 7-8; pKi Alpha2B [3]: 7-8; pKi 5HT2B (5-HT2B receptor): 8-9; pKi Alpha2C [4]: 6-7; pKi Beta2 [5]: <6; pKi Beta1 [6]: <6
–	–	–	–	–	–	–	CN(C)CCCC1(c2ccc(F)cc2)OCc2cc(C#N)ccc21 (centres unmarked) [citalopram]	patients reporting one or more of the listed side effects (patients): over 10%
–	–	–	–	–	–	–	NC(=O)C1(N2CCCCC2)CCN(CCCC(=O)c2ccc(F)cc2)CC1 [Pipamperone, 1′-[3-(p-Fluorobenzoyl)propyl]-[1,4′-bipiperidine]-4′-carboxamide]	tolerability in patients with depression ([7]; 1-20 mg/day PO, 8 weeks): generally well tolerated; anti-depressant effect on treatment refractory patients ([7]; 1-20 mg/day PO, 8 weeks, refractory towards SSRIs): apparent; sedative effects ([7]; doses used in the study (1-20 mg/day), observed at higher doses): lacking; anti-depressant effect ([7]; extremely unconventional low dose, 1-20 mg/day PO, 8 weeks, open label): apparent; Ki (D4 receptor): ≤ 10 nM; pKi towards other 5HT receptors (other 5HT receptors): less than 8; pKi towards other dopamine receptors (other dopamine receptors): less than 8
–	–	–	–	–	–	–	OCCOCCN1CCN(C2=Nc3ccccc3Sc3ccccc32)CC1 [Seroquel]	Ki (5-HT1E receptor): > 1000 nM
–	–	–	–	–	–	–	CN(C)CCOC1=Cc2ccccc2Sc2ccc(Cl)cc21 [Zotepine]	Ki (D4 receptor): 10 to 100 nM

SMILES	pKi 5HT2C (5-HT2C receptor)	pKi D3 (D3 dopamine receptor)	pKi Alpha2A [1]	pKi 5HT2A (5-HT2A receptor)	pKi D4 (D4 receptor)	pKi Alpha1A [2]	pKi 5HT1A (5-HT1A receptor)	also measured
CCN1CCC[C@H]1CNC(=O)c1c(O)c(Cl)cc(Cl)c1OC (racemic) [Raciopride]	<6	8-9	<6	6-7	<6	<6	<6	pKi D1 (D1 dopamine receptor): <6
